{"source": "paper PMC5601235", "about": "“In vivo characterisation of a therapeutically relevant self‐assembling ^18F‐labelled β‐sheet forming peptide and its hydrogel using positron emission tomography” (Journal of Labelled Compounds & Radiopharmaceuticals, 2017)", "key": {"[1]": {"assay": "Preclinical PET biodistribution of [^18F]FPCA‐F9 solution after tail‐vein injection", "type": "in vivo, C3H mice", "conditions": "C3H, mouse, iv, 13 MBq, total radioactivity, i.v. tail vein; for SUV at 1 h: 1 hour postinjection; for SUV at 20 min: 20 minutes postinjection", "procedure": "C3H mice were anaesthetised using isoflurane induction 4% and maintained 1.5% in 70% N2O and 30% O2 mixture. [^18F]FPCA‐F9 solution was injected in the tail vein (13 MBq, n = 4) of healthy mice or [^18F]FPCA‐F9 hydrogel was injected subcutaneously into the right flank of different healthy mice (2‐5 MBq, n = 3). The acquisition protocol parameters consisted of a preliminary CT scan to determine attenuation correction factors followed by a 1‐ and 4‐hour PET acquisition time for [^18F]FPCA‐F9 solution and hydrogel, respectively. Major excretory organs, including liver, kidney and bladder as well as bone and hydrogel region (in [^18F]FPCA‐F9 hydrogel scans only), were delineated on CT and uptake was quantified as SUV."}, "[2]": {"assay": "[^18F]FPCA‐F9 preclinical metabolite analysis (SE‐HPLC of plasma, kidney, liver, urine)", "type": "in vivo, C3H mice", "procedure": "[…] Plasma was extracted from whole blood samples using a Thermo ALC multispeed refrigerated centrifuge PK121R (8720 g, 4°C for 3 minutes). Kidney and liver samples were homogenised and centrifuged (8720 g, 4°C for 3 minutes), and the supernatant was removed for HPLC analysis. Urine samples were directly injected onto HPLC without sample preparation using a GE Superdex peptide 10/300 GL (GE Healthcare, UK) eluted with PBS (1 mL/min, 220 nm)."}}, "note": "Like-named read-outs stand apart in the source and are kept apart here. Where a SMILES comes first, the peptide text is derived from it. The star is where a group is joined. X1 = O=C(CO/N=C/c1cccnc1F)*"}
{"smiles": "NCCCC[C@H](NC(=O)[C@H](CCCCN)NC(=O)[C@H](Cc1ccccc1)NC(=O)[C@H](CCC(=O)O)NC(=O)[C@H](Cc1ccccc1)NC(=O)[C@H](CCCCN)NC(=O)[C@H](Cc1ccccc1)NC(=O)[C@H](CCC(=O)O)NC(=O)[C@H](Cc1ccccc1)NC(=O)CO/N=C/c1cccnc1F)C(=O)O", "note": "[[^18F]FPCA‐F9] (X1-FEFKFEFKK-OH)", "values": [{"measurement": "SUV at 1 h", "setting": "[1]; bladder, n = 4, read-out: Bladder uptake", "value": "47.4 ± 7.2", "unit": "SUV"}, {"measurement": "SUV at 20 min", "setting": "[1]; bladder, begins to plateau, n = 4, mean ± SD, read-out: Bladder uptake", "value": "53.4 ± 16.6", "unit": "SUV"}, {"measurement": "SUV at 1 h", "setting": "[1]; bone, n = 4, read-out: Bone accumulation", "value": "7.8 ± 2.5", "unit": "SUV"}, {"measurement": "SUV", "setting": "[1]; kidney, within 5 minutes postinjection, n = 4, read-out: Kidney uptake", "value": "5.9 ± 1.9", "unit": "SUV"}, {"measurement": "SUV at 5 min", "setting": "[1]; liver, 5 minutes postinjection, n = 4, read-out: Liver uptake", "value": "1.4 ± 0.1", "unit": "SUV"}, {"measurement": "SUV at 20 min", "setting": "[1]; liver, n = 4, read-out: Liver uptake", "value": "0.7 ± 0.1", "unit": "SUV"}, {"measurement": "Metabolites of [^18F]FPCA‐F9 in liver, kidney, urine and plasma samples (in words)", "setting": "[2]; SE‐HPLC, parent peak at ~18 minutes", "value": "none of the samples analysed showed any metabolite"}, {"measurement": "Plasma stability (in words)", "setting": "[2]; in vivo, mouse plasma, metabolite analysis by SE‐HPLC", "value": "high plasma stability"}, {"measurement": "Radioactivity in second peak at ~8 minutes (larger species, aggregation or protein interaction)", "setting": "[2]; liver and kidney samples, SE‐HPLC", "value": "~ 5%"}, {"measurement": "Parent ([^18F]FPCA‐F9) fraction, kidney", "setting": "[2]; mouse kidney homogenate supernatant after i.v. injection of monomer, after 60 minutes, SE‐HPLC radio‐detection, mean ± SD, n = 4", "value": "95% ± 1%"}, {"measurement": "Parent ([^18F]FPCA‐F9) fraction, liver", "setting": "[2]; mouse liver homogenate supernatant after i.v. injection of monomer, after 60 minutes, SE‐HPLC radio‐detection (Superdex peptide 10/300 GL, PBS), mean ± SD, n = 4", "value": "94% ± 0%"}, {"measurement": "Parent ([^18F]FPCA‐F9) fraction, plasma", "setting": "[2]; mouse plasma after i.v. injection of monomer, after 60 minutes, SE‐HPLC radio‐detection, mean, n = 4", "value": 100, "unit": "%"}, {"measurement": "Parent ([^18F]FPCA‐F9) fraction, urine", "setting": "[2]; mouse urine after i.v. injection of monomer, after 60 minutes, SE‐HPLC radio‐detection, mean ± SD, n = 4", "value": "95% ± 1%"}, {"measurement": "Radioactivity in peak at ~12 minutes (larger species)", "setting": "[2]; urine samples, SE‐HPLC", "value": 5, "unit": "%"}]}
